In ChEMBL document CHEMBL3864146, “5-Alkyloxytryptamines are membrane-targeting, broad-spectrum antibiotics” (Bioorg Med Chem Lett, 2016):
Calls of active or inactive are those of the source.

How the values were obtained:
Escherichia coli [1] = experiment: Antibacterial activity against Escherichia coli BW25113 after 16 to 18 hrs by micro-dilution method; format: functional
Escherichia coli [2] = experiment: Antibacterial activity against tolC-deficient Escherichia coli BW25113 after 16 to 18 hrs by micro-dilution method; format: functional
Bacillus subtilis [3] = experiment: Antibacterial activity against Bacillus subtilis 168 after 16 to 18 hrs by micro-dilution method; format: functional; conditions: subsp. subtilis str. 168
Pseudomonas aeruginosa [4] = experiment: Antibacterial activity against Pseudomonas aeruginosa after 16 to 18 hrs by micro-dilution method; format: functional
Salmonella typhimurium [5] = experiment: Antibacterial activity against Salmonella typhimurium after 16 to 18 hrs by micro-dilution method; format: functional, Salmonella enterica subsp. enterica serovar Typhimurium; conditions: Salmonella enterica
Vibrio cholerae [6] = experiment: Antibacterial activity against Vibrio cholerae after 16 to 18 hrs by micro-dilution method; format: functional
Shigella boydii [7] = experiment: Antibacterial activity against Shigella boydii after 16 to 18 hrs by micro-dilution method; format: functional
Klebsiella pneumoniae [8] = experiment: Antibacterial activity against Klebsiella pneumoniae after 16 to 18 hrs by micro-dilution method; format: functional
Klebsiella aerogenes [9] = experiment: Antibacterial activity against Enterobacter aerogenes after 16 to 18 hrs by micro-dilution method; format: functional
Acinetobacter baumannii [10] = experiment: Antibacterial activity against Acinetobacter baumannii after 16 to 18 hrs by micro-dilution method; format: functional
Edwardsiella tarda [11] = experiment: Antibacterial activity against Edwardsiella tarda after 16 to 18 hrs by micro-dilution method; format: functional
Morganella morganii [12] = experiment: Antibacterial activity against Morganella morganii after 16 to 18 hrs by micro-dilution method; format: functional
Staphylococcus aureus [13] = experiment: Antibacterial activity against Staphylococcus aureus after 16 to 18 hrs by micro-dilution method; format: functional
Escherichia coli [14] = experiment: Induction of membrane permeabilization in Escherichia coli BW25113 at MIC after 15 mins by propidium iodide staining-based fluorescence microplate reader method relative to 50% ethanol; format: functional
Streptococcus pyogenes [15] = experiment: Antibacterial activity against Streptococcus pyogenes after 16 to 18 hrs; format: functional
Escherichia coli [16] = experiment: Bactericidal activity against Escherichia coli BW25113 after 22 hrs by micro-dilution method; format: functional; conditions: BW25113, 22 h
Escherichia coli [17] = experiment: Bactericidal activity against tolC-deficient Escherichia coli BW25113 after 22 hrs by micro-dilution method; format: functional; conditions: BW25113, 22 h
Bacillus subtilis [18] = experiment: Bactericidal activity against Bacillus subtilis 168 after 22 hrs by micro-dilution method; format: functional; conditions: subsp. subtilis str. 168, 22 h
Pseudomonas aeruginosa [19] = experiment: Bactericidal activity against Pseudomonas aeruginosa after 22 hrs by micro-dilution method; format: functional
Salmonella typhimurium [20] = experiment: Bactericidal activity against Salmonella typhimurium after 22 hrs by micro-dilution method; format: functional, Salmonella enterica subsp. enterica serovar Typhimurium; conditions: Salmonella enterica
Vibrio cholerae [21] = experiment: Bactericidal activity against Vibrio cholerae after 22 hrs by micro-dilution method; format: functional
Shigella boydii [22] = experiment: Bactericidal activity against Shigella boydii after 22 hrs by micro-dilution method; format: functional
Klebsiella pneumoniae [23] = experiment: Bactericidal activity against Klebsiella pneumoniae after 22 hrs by micro-dilution method; format: functional
Klebsiella aerogenes [24] = experiment: Bactericidal activity against Enterobacter aerogenes after 22 hrs by micro-dilution method; format: functional
Acinetobacter baumannii [25] = experiment: Bactericidal activity against Acinetobacter baumannii after 22 hrs by micro-dilution method; format: functional
Edwardsiella tarda [26] = experiment: Bactericidal activity against Edwardsiella tarda after 22 hrs by micro-dilution method; format: functional
Morganella morganii [27] = experiment: Bactericidal activity against Morganella morganii after 22 hrs by micro-dilution method; format: functional
Staphylococcus aureus [28] = experiment: Bactericidal activity against Staphylococcus aureus after 22 hrs by micro-dilution method; format: functional
Streptococcus pyogenes [29] = experiment: Bactericidal activity against Streptococcus pyogenes after 22 hrs; format: functional
Escherichia coli [30] = experiment: Ratio of MBC to MIC for Escherichia coli BW25113 after 16 to 18 hrs by micro-dilution method; format: functional
Escherichia coli [31] = experiment: Ratio of MBC to MIC for tolC-deficient Escherichia coli BW25113; format: functional
Bacillus subtilis [32] = experiment: Ratio of MBC to MIC for Bacillus subtilis 168; format: functional, subsp. subtilis str. 168
Pseudomonas aeruginosa [33] = experiment: Ratio of MBC to MIC for Pseudomonas aeruginosa; format: functional
Salmonella typhimurium [34] = experiment: Ratio of MBC to MIC for Salmonella typhimurium; format: functional, Salmonella enterica subsp. enterica serovar Typhimurium
Vibrio cholerae [35] = experiment: Ratio of MBC to MIC for Vibrio cholerae; format: functional
Shigella boydii [36] = experiment: Ratio of MBC to MIC for Shigella boydii; format: functional
Klebsiella pneumoniae [37] = experiment: Ratio of MBC to MIC for Klebsiella pneumoniae; format: functional
Klebsiella aerogenes [38] = experiment: Ratio of MBC to MIC for Enterobacter aerogenes; format: functional
Acinetobacter baumannii [39] = experiment: Ratio of MBC to MIC for Acinetobacter baumannii; format: functional
Edwardsiella tarda [40] = experiment: Ratio of MBC to MIC for Edwardsiella tarda; format: functional
Morganella morganii [41] = experiment: Ratio of MBC to MIC for Morganella morganii; format: functional
Staphylococcus aureus [42] = experiment: Ratio of MBC to MIC for Staphylococcus aureus; format: functional
Streptococcus pyogenes [43] = experiment: Ratio of MBC to MIC for Streptococcus pyogenes; format: functional
Escherichia coli [44] = experiment: Induction of membrane permeabilization in Escherichia coli BW25113 at MIC to 2 times MIC after 5 mins by propidium iodide staining-based flow cytometric method; format: functional
Escherichia coli [45] = experiment: Antibacterial activity against Escherichia coli BW25113 by multiple copy suppression assay; format: functional
Escherichia coli [46] = experiment: Antibacterial activity against Escherichia coli 5-NOT mutant 8 harboring ydeA gene mutation by multiple copy suppression assay; format: functional
Escherichia coli [47] = experiment: Antibacterial activity against Escherichia coli 5-NOT mutant 8 harboring pykA gene mutation by multiple copy suppression assay; format: functional
Escherichia coli [48] = experiment: Antibacterial activity against Escherichia coli 5-NOT mutant 8 harboring otsA gene mutation by multiple copy suppression assay; format: functional
Escherichia coli [49] = experiment: Antibacterial activity against Escherichia coli 5-NOT mutant 15-1 harboring ydeA gene mutation by multiple copy suppression assay; format: functional
Escherichia coli [50] = experiment: Antibacterial activity against Escherichia coli 5-NOT mutant 15-1 harboring thrS gene mutation by multiple copy suppression assay; format: functional
Escherichia coli [51] = experiment: Antibacterial activity against Escherichia coli 5-NOT mutant 15-1 harboring pykA gene mutation by multiple copy suppression assay; format: functional
Escherichia coli [52] = experiment: Adjuvant activity assessed as potentiation of chloramphenicol-induced antibacterial activity against Escherichia coli BW25113 at 0.5 times MIC after 16 to 18 hrs by checkerboard assay (reference value: 8 ng/ml); format: functional
Escherichia coli [53] = experiment: Adjuvant activity assessed as potentiation of chloramphenicol-induced antibacterial activity against Escherichia coli BW25113 at 0.25 times MIC after 16 to 18 hrs by checkerboard assay (reference value: 8 ng/ml); format: functional
Escherichia coli [54] = experiment: Adjuvant activity assessed as potentiation of tetracycline-induced antibacterial activity against Escherichia coli BW25113 at 0.5 times MIC after 16 to 18 hrs by checkerboard assay (reference value: 2 ng/ml); format: functional
Escherichia coli [55] = experiment: Adjuvant activity assessed as potentiation of tetracycline-induced antibacterial activity against Escherichia coli BW25113 at 0.25 times MIC after 16 to 18 hrs by checkerboard assay (reference value: 2 ng/ml); format: functional
Escherichia coli [56] = experiment: Adjuvant activity assessed as potentiation of ciprofloxacin-induced antibacterial activity against Escherichia coli BW25113 at 0.5 times MIC after 16 to 18 hrs by checkerboard assay (reference value: 13 ng/ml); format: functional
Escherichia coli [57] = experiment: Adjuvant activity assessed as potentiation of ciprofloxacin-induced antibacterial activity against Escherichia coli BW25113 at 0.25 times MIC after 16 to 18 hrs by checkerboard assay (reference value: 13 ng/ml); format: functional
Escherichia coli [58] = experiment: Adjuvant activity assessed as potentiation of rifampicin-induced antibacterial activity against Escherichia coli BW25113 at 0.5 times MIC after 16 to 18 hrs by checkerboard assay (reference value: 8 ng/ml); format: functional
Escherichia coli [59] = experiment: Adjuvant activity assessed as potentiation of rifampicin-induced antibacterial activity against Escherichia coli BW25113 at 0.25 times MIC after 16 to 18 hrs by checkerboard assay (reference value: 8 ng/ml); format: functional
Homo sapiens = species on record: Homo sapiens; experiment: Selectivity ratio of Ki for 5-HT1A receptor (unknown origin) to Ki for human 5-HT1D receptor

CCCCCCCCCCCCCCCOc1ccc2[nH]cc(CCN)c2c1.Cl
> 124 µg/mL: MIC (Escherichia coli [1]) | MIC (Escherichia coli [2]) | MIC (Bacillus subtilis [3]) | MIC (Pseudomonas aeruginosa [4]) | MIC (Salmonella typhimurium [5]) | MIC (Vibrio cholerae [6]) | MIC (Shigella boydii [7]) | MIC (Klebsiella pneumoniae [8]) | MIC (Klebsiella aerogenes [9]) | MIC (Acinetobacter baumannii [10]) | MIC (Edwardsiella tarda [11]) | MIC (Morganella morganii [12]) | MIC (Staphylococcus aureus [13])
13%: Activity (Escherichia coli [14])

CCCCCCCCCOc1ccc2[nH]cc(CCN)c2c1.Cl
0.008 µg/mL: MIC (Escherichia coli [52]) | MIC (Escherichia coli [53]) | MIC (Escherichia coli [58]) | MIC (Escherichia coli [59])
0.76 µg/mL: MIC (Bacillus subtilis [3]) | MBC (Bacillus subtilis [18])
12 to 24 µg/mL: MIC (Morganella morganii [12])
96 µg/mL: MBC (Pseudomonas aeruginosa [19])
24 to 96 µg/mL: MIC (Pseudomonas aeruginosa [4])
1: Ratio (Bacillus subtilis [32]) | Ratio (Shigella boydii [36]) | Ratio (Klebsiella pneumoniae [37]) | Ratio (Acinetobacter baumannii [39]) | Ratio (Streptococcus pyogenes [43])
4: Ratio (Escherichia coli [31]) | Ratio (Pseudomonas aeruginosa [33]) | Ratio (Salmonella typhimurium [34]) | Ratio (Vibrio cholerae [35])
300: Ratio Ki (Homo sapiens)
6 µg/mL: MIC (Escherichia coli [1]) | MIC (Shigella boydii [7]) | MIC (Klebsiella pneumoniae [8]) | MIC (Acinetobacter baumannii [10]) | MIC (Staphylococcus aureus [13]) | MBC (Escherichia coli [17]) | MBC (Shigella boydii [22]) | MBC (Klebsiella pneumoniae [23]) | MBC (Acinetobacter baumannii [25]) | MBC (Staphylococcus aureus [28])
active: Activity (Escherichia coli [44])
2: Ratio (Escherichia coli [30]) | Ratio (Edwardsiella tarda [40]) | Ratio (Morganella morganii [41]) | Ratio (Staphylococcus aureus [42])
12 µg/mL: MBC (Escherichia coli [16]) | MBC (Edwardsiella tarda [26])
>4: Ratio (Klebsiella aerogenes [38])
6 to 12 µg/mL: MIC (Edwardsiella tarda [11])
> 24 µg/mL: MBC (Klebsiella aerogenes [24])
6 to 24 µg/mL: MIC (Salmonella typhimurium [5]) | MIC (Vibrio cholerae [6]) | MIC (Klebsiella aerogenes [9])
100%: Activity (Escherichia coli [14])
80 µM: MIC (Escherichia coli [45]) | MIC (Escherichia coli [46]) | MIC (Escherichia coli [47]) | MIC (Escherichia coli [48]) | MIC (Escherichia coli [49]) | MIC (Escherichia coli [50]) | MIC (Escherichia coli [51])
24 µg/mL: MIC (Streptococcus pyogenes [15]) | MBC (Salmonella typhimurium [20]) | MBC (Vibrio cholerae [21]) | MBC (Morganella morganii [27]) | MBC (Streptococcus pyogenes [29])
0.013 µg/mL: MIC (Escherichia coli [56]) | MIC (Escherichia coli [57])
0.002 µg/mL: MIC (Escherichia coli [54]) | MIC (Escherichia coli [55])
1.5 µg/mL: MIC (Escherichia coli [2])
